Laboratory results reported in PMC12670164, “In vitro and clinical data demonstrate negligible risk of drug–drug interactions with opelconazole, a novel inhaled antifungal agent” (Journal of Antimicrobial Chemotherapy, 2025).
pIC50: −log10 of the molar value. ≈ marks a conversion by molar mass, not a printed value. Where “and” joins values, the source holds several entries; their conditions need not be identical. Identical values can stand only once. Like-named read-outs stand apart in the source and are kept apart here.

How the values were obtained:
CYP3A4 = CYP3A4 (Homo sapiens, UniProt P08684); conditions: for pIC50: read-out: IC50, CYP3A4
Protocol: The potential for opelconazole to inhibit CYP isoforms was tested in vitro in human liver microsomes. […] Preincubation of the human liver microsomes for periods of 0 min without NADPH and 30 min with NADPH, plus 30 min without NADPH were included to assess for a time-dependent inhibition effect. Two structurally diverse substrates (testosterone and midazolam) were tested to assess substrate-dependent inhibition.

[1] = parameters: method as in unpublished data; L.M.R. Cass and L. Berman; conditions: ref unpublished data; L.M.R. Cass and L. Berman; cited from earlier work
CYP isoforms = assay: Initial CYP inhibition study in human liver microsomes; assay type: in vitro ADME; conditions: opelconazole 0.03 to 5 μM
[2] = Phase 1 study: safety and tolerability; assay type: in vivo, human
Protocol: Safety and tolerability were assessed by monitoring the incidence, nature and severity of adverse events (AEs) as well as by vital-sign measurements, 12-lead ECGs, clinical laboratory testing (haematology, chemistry and urinalysis), physical examination and lung function testing [forced expiratory volume in one second (FEV1) and forced vital capacity (FVC)].

[3] = parameters: method as in PMID 33340279; conditions: cited from earlier work
CYP2B6 = assay: CYP induction, mRNA endpoint, cryopreserved human hepatocytes; assay type: in vitro ADME; conditions: any of the three donors
Protocol: The hepatocyte cells were dosed with opelconazole (0.012, 0.03, 0.12, 0.3, 1.2 and 3 μM) and positive control compounds (omeprazole for CYP1A2 and rifampicin for CYP3A4).

CYP1A2 = assay: as above; conditions: for CYP1A2 mRNA increase: concentration-dependent, 72 h
Protocol: The potential for opelconazole to act as an inducer of CYP isoforms CYP1A2, CYP2B6 and CYP3A4 was assessed in vitro using an mRNA endpoint across three donors in cryopreserved human hepatocytes. A drug is interpreted as an inducer if: (1) it increases mRNA expression of a CYP enzyme in a concentration-dependent manner and (2) the fold change of CYP mRNA expression relative to vehicle control is ≥2-fold at the drug’s expected hepatic concentrations.[23]
A cytotoxicity assessment using MTT was performed in one of the three donors used for the induction studies prior to dosing.

[4] = Phase 1 study: plasma pharmacokinetics of inhaled opelconazole in healthy volunteers; assay type: in vivo, human
Protocol: The study was conducted from February 2023 through June 2023 in accordance with the Declaration of Helsinki, Good Clinical Practice, and the International Conference on Harmonisation guidelines (South African National Clinical Trial Registry code: DOH-27-122022-5196). The study documents were approved by an Independent Ethics Committee. Study participants provided written informed consent prior to any study procedures.
Screening occurred within 28 days prior to the first dosing day (Figure 1). Participants were admitted to the study centre on Day −1 and were required to stay there until approximately 48 h after the morning dosing on Day 15. They returned for subsequent PK blood samples at approximately 72 (Day 18), 168 (Day 22) and 336 h (Day 29) after the last morning dosing. On Days 1 and 15, participants received oral midazolam 7.5 mg and oral caffeine 180 mg together after food ingestion.
Standard doses of midazolam and caffeine were used to characterize their PK profiles. The dose selected for opelconazole, 14.8 mg twice daily, is the dose utilized in the clinical development programme for the treatment and prevention of invasive pulmonary aspergillosis (IPA). Following 14 days of twice daily dosing, plasma concentrations were expected to be within 80% of steady-state concentrations and deemed appropriate to assess potential interactions with the probe substrates.
Study participants inhaled opelconazole 14.8 mg twice daily using the PARI LC SPRINT® jet nebuliser for 14 days, starting on Day 2 through Day 15. Morning doses of opelconazole on Day 2 and Day 15 were taken 30 min after food ingestion. Blood samples were taken for PK analyses for midazolam, metabolites of midazolam (1-OH-midazolam and 4-OH-midazolam) and caffeine on Days 1 and 15 at pre-dose (0 h), at 0.5, 1, 1.5, 2, 3, 4, 6, 8, 10, 12, 16, 24, 30, 36 and 48 h post-dose on Days 1 and 15. Blood samples were taken for PK analyses for opelconazole as follows: on Day 2 at pre-morning dose (0 h), at 0.5, 1, 2, 4, 6, 8, 12 and 24 h post-morning dose; on Day 15: at pre-morning-dose (0 h), at 0.5, 1, 2, 4, 6, 8, 10, 12, 24 (Day 16), 30 (Day 16), 36 (Day 16), 48 (Day 17), 72 (Day 18), 168 (Day 22) and 336 (Day 29) h post-morning-dosing.
Primary PK parameters assessed for midazolam and its metabolites (1-OH-midazolam, 4-OH-midazolam), caffeine and opelconazole were Cmax and AUC, from time zero to t, where t is the time of the last quantifiable concentration (AUC(0−t); i.e., AUC(0−12) and AUC(0−24)). Secondary PK parameters were AUC(0−∞), Tmax, apparent t1/2 and accumulation ratio (RO) of opelconazole only.

[5] = substrate midazolam, 30-min preincubation
[6] = Day 2, inhaled 14.8 mg twice daily
[7] = Day 15, after 14 days inhaled 14.8 mg twice daily

Sequence of CYP3A4 (P08684 whole entry, canonical isoform): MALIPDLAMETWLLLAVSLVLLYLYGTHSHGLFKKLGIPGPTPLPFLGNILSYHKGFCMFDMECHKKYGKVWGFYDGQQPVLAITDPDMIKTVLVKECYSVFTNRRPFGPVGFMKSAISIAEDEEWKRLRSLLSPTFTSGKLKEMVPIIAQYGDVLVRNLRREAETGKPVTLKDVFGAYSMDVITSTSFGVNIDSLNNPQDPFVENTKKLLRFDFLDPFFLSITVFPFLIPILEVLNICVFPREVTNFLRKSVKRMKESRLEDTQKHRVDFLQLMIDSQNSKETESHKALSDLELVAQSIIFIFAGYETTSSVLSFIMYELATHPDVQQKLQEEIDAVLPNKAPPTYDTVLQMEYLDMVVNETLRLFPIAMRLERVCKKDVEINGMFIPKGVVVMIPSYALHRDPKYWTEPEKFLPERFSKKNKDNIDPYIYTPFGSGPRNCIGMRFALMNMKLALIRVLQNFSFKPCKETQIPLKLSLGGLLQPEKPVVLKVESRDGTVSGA

`Cc1cc(N2CCN(c3ccc(C(=O)Nc4ccc(F)cc4)cc3)CC2)ccc1OC[C@@H]1CO[C@@](Cn2cncn2)(c2ccc(F)cc2F)C1` [opelconazole] showed a pIC50 (CYP3A4; [5]) of roughly 6.82, a pIC50 (CYP3A4; substrate midazolam, without pre-incubation, 0.001–0.25 µM) of 6.91 and a pIC50 (CYP3A4; substrate testosterone, 30-min preincubations with or without NADPH) of 6.82. The pIC50 (CYP3A4; substrate testosterone, without pre-incubation, 0.001–0.25 µM) was less than 6.60, the “IC50, CYP3A4” value (CYP3A4; [5]) was roughly 0.102 µg/mL (≈ 0.149 µM) and the “time-dependent inhibition of CYP3A4” value (CYP3A4; [5]) was “not evident”. For the same compound, the “oral bioavailability of any swallowed fraction” value [1] was “negligible”, the “CYP inhibition, initial study” value (CYP isoforms) was “limited to CYP3A4” and the “headache considered related to inhaled opelconazole, participants” value ([2]; 5/24 participants, all mild, 14.8 mg twice daily for 14 days with midazolam/caffeine) was 20.8%. For the same compound, the post-dose acute bronchospasm ([2]; any participant who received opelconazole) was “no evidence”, the “changes in lung function (FEV1 and FVC)” value ([2]; any timepoint during the study) was “No clinically significant changes” and the “deaths or serious AEs” value ([2]; healthy volunteers N = 24, 14.8 mg twice daily for 14 days) was “No deaths or serious AEs were reported”. For the same compound, the tolerability ([2]; inhaled 14.8 mg twice daily) was “generally well tolerated”, the “plasma protein binding (PPB)” value [3] was 97% and the “CYP2B6 mRNA expression” value (CYP2B6) was “did not increase mRNA expression”. The “opelconazole concentration giving threshold induction outcome” value (CYP1A2; CYP1A2, in vitro) was 0.3 μM and 204 ng/mL, the “CYP1A2 mRNA increase” value (CYP1A2; donor 1, opelconazole ≥0.3 μM) was 2.72 fold and the “CYP1A2 mRNA increase” value (CYP1A2; donor 2, opelconazole ≥0.3 μM) was 1.97 fold. The “AUC(0–12 h), geometric mean (CV%)” value ([4]; Day 2 (first dosing day), inhaled 14.8 mg twice daily) was 7.81 (27.8) h·ng/mL, the “AUC(0-t), geometric mean (CV%)” value [4, 6] was 19.9 (29.4) h·ng/mL and the “AUC(0–24 h), geometric mean (CV%)” value [4, 6] was 19.6 (29.4) h·ng/mL. For the same compound, the “Cmax, geometric mean (CV%)” value [4, 6] was 0.91 (29.3) ng/mL, the “Tmax, median (range)” value [4, 6] was 6.17 (2.17, 12.1) h and the “AUC(0-t), geometric mean (CV%)” value [4, 7] was 1270 (45.8) h·ng/mL. The “AUC(0–12 h), geometric mean (CV%)” value [4, 7] was 69.8 (45.4) h·ng/mL, the “AUC(0–24 h), geometric mean (CV%)” value [4, 7] was 136 (46.7) h·ng/mL and the “Cmax, geometric mean (CV%)” value [4, 7] was 7.07 (47.2) ng/mL. The “Tmax, median (range)” value [4, 7] was 4.17 (0.67, 48.0) h, the “t½, geometric mean (CV%)” value [4, 7] was 188 (21.4) h and the “AUC(0−∞), geometric mean (CV%)” value ([4]; Day 15, inhaled 14.8 mg twice daily, n=2) was 1720 (31.2) h·ng/mL. For the same compound, the “RO (accumulation ratio) AUC(0–12 h) Day 15/Day 2, geometric mean (CV%)” value ([4]; inhaled 14.8 mg twice daily) was 8.93 (38.4), the “RO (accumulation ratio) AUC(0–24 h) Day 15/Day 2, geometric mean (CV%)” value ([4]; inhaled 14.8 mg twice daily) was 6.97 (35.8) and the “RO (accumulation ratio) Cmax Day 15/Day 2, geometric mean (CV%)” value ([4]; inhaled 14.8 mg twice daily) was 7.77 (46.7). For the same compound, the “observed RO (Day 15/Day 2) for AUC0–12h” value ([4]; inhaled 14.8 mg twice daily) was 8.9 fold, the “observed RO (Day 15/Day 2) for Cmax” value ([4]; inhaled 14.8 mg twice daily) was 7.8 fold and the Cmax ([4]; multiple inhaled doses, clinical dosing, read-out: systemic Cmax at steady state) was 10 nM and ≤ 10 nM.
